Assay results published in patent publication US7071218B2, “N-substituted heterocycles for the treatment of hypercholesteremia, dyslipidemia and other metabolic disorders; cancer, and other diseases” (Incyte San Diego Incorporated, priority 2001, dated 2006).

Tests used:
[1] = system: PC-3 prostate cancer cells; experiment: MTT anti-cancer assay, PC-3 prostate cancer cells; type: cell-based, human; settings: PC-3, 6 days
Source text: (§1) The anti-cancer activity of the compounds of the invention herein have been tested in in vitro assays using a microculture assay with 3-(4,5-dimethylthiazol-2-yl)-2,5-diphenyltetrazolium bromide (“MTT”) a test well known to those skilled in the art. This assay has an advantage over in vivo assay in that results are obtained within a week as opposed to several months. The assay can be carried out in 96-well microtiter plates. The MTT assay is based on the production of a dark blue formazan product by dehydrogenase in the mitochondria of live tumor cells after exposure to drug for 6 days [M. C. […] Thus, only live cells are stained and can be measured at 595 nm. […]
(§2) Treatment: Before commencing drug treatment, cells were replenished with media containing 0.5% FCS. […] As an end point, the amount of surviving cells (Live cells) was measured using a standard […] assay (MTT based), and calculated as percentage of cells treated with vehicle (DMSO) alone (% control).
(§3) MTT assay: The assay is based on the cleavage of the yellow tetrazolium salt MTT to purple formazan crystals by dehydrogenase activity in active mitochondria. […] The formazan crystals formed are solubilized and the resulting colored solution is quantified using a scanning multiwell spectrophotometer. […]

[2] = system: human cancer cell lines (A549, MDA-MB-468, PC-3, Bx-PC3); experiment: MTT anti-cancer assay, the other cancer cell lines of the panel; type: cell-based; settings: cell lines other than PC-3 (A549, MDA-MB-468, Bx-PC3), compared to PC-3
Source text: as §1, §2, §3

COc1cccc(/C=C2\SC(=S)N(CC(=O)O)C2=O)c1-c1cc2c(cc1C)C(C)(C)CCC2(C)C [Compound 9, {5-[3-Methoxy-2-(3,5,5,8,8-pentamethyl-5,6,7,8-tetrahydro-naphthalen-2-yl)-benzylidene]4-oxo-2-thioxo-thiazolidin-3-yl}-acetic acid]
anticancer effect [1]: very potent anticancer effect | anticancer effect [2]: less pronounced
